Source: patent publication US6429204B1, “Method of inhibiting cancer growth” (University of Miami, priority 1997, dated 2002)

Tests used:
[1] = test system: DU-145 and TSU-PR1 prostate cancer cell lines; assay: Prostate cancer cell viability/proliferation (trypan blue, MTT); type: cell-based, human; settings: exposure time not stated (24 hr or 48 hr)
Excerpt: To determine the cytotoxicity of CMTs on prostate tumor cell lines, TSU-PR1 cells (and cells of other tumor cell lines) were exposed to various CMTs or to doxycycline for 24 hr or 48 hr in a complete medium. Cell viability (percent of live cells) was estimated by counting the cells following trypan blue staining. Cellular viability was also estimated by the tetrazolium dye reduction assay (MTT assay) (Lokeshwar et al. 1995b). Due to the aggressive proliferative capacity of cancer cells, it is assumed that viable cells are actively proliferating. Therefore, the measurement of viability was used as an estimate of proliferation. Results are expressed as Mean±SEM from three separate experiments.

Dunning MAT LyLu cells [2] = assay: Cytotoxic effect on MAT LyLu cells (trypan blue); type: cell-based, rat; settings: 24 hr or 48 hr exposure
Description: Cell viability was estimated by trypan blue staining following exposure to the drugs. The results of these studies are summarized in FIG. 4A (24 hours) and FIG. 4B (48 hr). Data are presented as Mean±SEM from three separate experiments.

Dunning MAT LyLu cells [3] = assay: Matrigel invasion assay (Boyden chamber, MTT), MAT LyLu; type: cell-based, rat; settings: MAT LyLu, 5 μg/mL, 48 hr
Description: In this method, 4×10^5 tumor cells were plated on the top chamber of the Boyden chemotaxis assay chambers (Costar Transwell plates). The bottom side of the chamber was a 12 μm-pore polycarbonate filter layered with 0.5 mm thick layer of Matrigel. The bottom well contained a chemoattractant, a serum-free culture-conditioned medium from FHS 733 cells, a line of human fetal lung fibroblasts (ATCC No. HTB-157). Cancer cells (4×10^5) were plated in the top wells of the plates. Doxycycline or CMTs were diluted in a serum-free medium to 5 μg/mL, and were added to both top and bottom chambers. […] After 48 hr incubation, MTT was added to both the top and bottom wells (0.5 mg/mL), and incubation was continued for 4 hr. Wells were then emptied, and the cells from the undersides of the filter were pooled with those in the bottom wells with a filter tip. The reduced MTT (formazan) from top and bottom wells was solubilized with DMSO overnight, and absorbance (O.D.) at 515 nm was measured. The ratio of the O.D. from the bottom wells to that of the total (i.e., O.D. of top plus bottom wells) was taken as the invasive potential. […] The MTT assay procedure also normalizes the coincident inhibition due to the cytotoxic effects of the agents under investigation. Results presented are from three independent experiments.

Gelatinase A = target: T1, Gelatinase A (Homo sapiens, UniProt P08253); assay: Zymography with densitometry of C8161 conditioned medium, gelatinase A; type: cell-based; settings: 50 μg/mL, 24 hr
T1 construct: endogenous in cells; host or cells: C8161
T1 sequence (P08253 110-660): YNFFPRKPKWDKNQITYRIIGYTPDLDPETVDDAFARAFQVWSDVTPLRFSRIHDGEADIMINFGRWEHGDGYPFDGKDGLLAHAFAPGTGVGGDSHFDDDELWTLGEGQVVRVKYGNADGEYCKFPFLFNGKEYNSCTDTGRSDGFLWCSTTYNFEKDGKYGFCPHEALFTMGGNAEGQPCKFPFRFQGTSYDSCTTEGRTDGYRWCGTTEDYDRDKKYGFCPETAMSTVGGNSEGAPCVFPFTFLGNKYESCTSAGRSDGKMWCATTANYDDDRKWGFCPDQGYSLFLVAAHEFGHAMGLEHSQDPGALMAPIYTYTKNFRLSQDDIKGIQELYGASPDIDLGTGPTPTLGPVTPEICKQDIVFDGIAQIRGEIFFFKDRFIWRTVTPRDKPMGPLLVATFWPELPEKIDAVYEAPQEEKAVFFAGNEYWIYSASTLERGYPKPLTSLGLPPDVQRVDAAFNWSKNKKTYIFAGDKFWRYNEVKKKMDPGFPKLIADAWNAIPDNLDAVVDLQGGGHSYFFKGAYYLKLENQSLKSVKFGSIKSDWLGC
Description: (§1) Six hundred thousand (6×10^5) C8161 cells were seeded per well in a 12-well dish coated with a laminin/collagen IV/gelatin matrix in DMEM plus Mito+ and 0.1% gentamicin sulfate. After approximately 1 hr incubation to allow the cells to attach, 50 μg/mL of either doxycycline or one of the other CMTs was added per well and the dish then placed in a 37° C. humidified 5% CO2 incubator. After 24 hr, the supernatants were removed and centrifuged to remove any cells or debris. One volume of Laemmli sample buffer minus reductant was added to two volumes of the medium, and this sample electrophoresed without prior heating or boiling on a 10% SDS-PAGE containing 0.1% gelatin (samples normalized based on the same number of cells per volume of medium per time of incubation). After electrophoresis, the gels were washed with gentle shaking at room temperature for 30 min in 50 mM Tris-HCl (pH 7.5) plus 2.5% TRITON® X100 plus 50 μg/mL of the corresponding CMT used in the original treatment. The gel was then placed in incubation buffer (50 mM Tris-Cl/10 mM CaCl2/150 mM NaCl/0.05% NaN3) also containing 50 μg/mL of the corresponding CMT, and incubated at 37° C. for 20-24 hr. The gels were stained with Coomassie BBR-250, then destained with 10% methanol/10% acetic acid in water until the wash remained clear. A photographic negative of the gel was digitized using a video camera and Snappy Video Snapshot system (Play Inc., Rancho Cordova, Calif.). An integrated density was determined for each of the cleared zones of proteolysis using the software ImagePC8α (freely available from the National Institutes of Health), and the corresponding changes in gelatinolytic activities reported compared to the control samples normalized to a value of 1.0.

Gelatinase B = target: T2, Gelatinase B (Homo sapiens, UniProt P14780); assay: Zymography with densitometry of C8161 conditioned medium, gelatinase B; type: cell-based; settings: 50 μg/mL, 24 hr
T2 construct: endogenous in cells; host or cells: C8161
T2 sequence (P14780 94-707): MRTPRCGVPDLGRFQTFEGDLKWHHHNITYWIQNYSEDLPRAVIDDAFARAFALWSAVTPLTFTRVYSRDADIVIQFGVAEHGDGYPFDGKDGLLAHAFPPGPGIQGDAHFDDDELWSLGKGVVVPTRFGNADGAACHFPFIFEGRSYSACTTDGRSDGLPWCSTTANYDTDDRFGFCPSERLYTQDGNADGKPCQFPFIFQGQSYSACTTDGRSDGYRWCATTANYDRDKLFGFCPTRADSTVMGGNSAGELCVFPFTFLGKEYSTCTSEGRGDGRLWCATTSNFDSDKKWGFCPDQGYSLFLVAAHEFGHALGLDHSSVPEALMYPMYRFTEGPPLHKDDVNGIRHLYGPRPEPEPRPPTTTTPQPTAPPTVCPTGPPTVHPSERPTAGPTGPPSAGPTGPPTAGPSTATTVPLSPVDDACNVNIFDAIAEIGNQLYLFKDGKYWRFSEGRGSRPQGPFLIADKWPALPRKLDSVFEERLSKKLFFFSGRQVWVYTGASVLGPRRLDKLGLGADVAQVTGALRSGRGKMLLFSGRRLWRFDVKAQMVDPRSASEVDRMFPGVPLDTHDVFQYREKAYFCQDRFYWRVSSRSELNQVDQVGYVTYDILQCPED
Description: as §1

[4] = test system: C8161 human melanoma cells; assay: In vitro invasion assay (MICS), laminin/collagen IV/gelatin matrix-coated filter; type: cell-based; settings: 3, 20 and 50 μg/mL; for Percent Inhibition of invasive potential: 48 hr
Description: The in vitro invasive potentials of the control (DMSO only) and chemically-modified tetracycline treated cells were measured using a modified Boyden chamber as previously described (Membrane Invasion Culture System, MICS). An intervening barrier consisting of a polycarbonate filter containing 10 μm pores (Osmonics, Livermore, Calif.) coated with a defined matrix of human laminin/collagen IV/gelatin (Sigma, St. Louis, Mo.) was used for these studies. […] Doxycycline or individual CMTs were then added to different wells of the chamber at 3, 20 or 50 μg/mL 2 hr post-seeding and daily during the assay. After 48 hr, the cells were removed from the lower wells and the number of invasive cells was determined and compared to the original number of cells seeded into the upper wells. Where appropriate, data were corrected for proliferation during the period of the in vitro assay.

[5] = Blood levels after oral gavage of adult rats
Excerpt: In the treatment of certain localized cancers, the degree of hydrophilicity of the non-antimicrobial tetracycline compound can be of lesser importance.

[6] = Solubility in aqueous systems; type: physicochemical
E-10 Cells = assay: MTS cytotoxicity assay, E-10; settings: two days
COLO 205 Cells = assay: MTS cytotoxicity assay, COLO 205; settings: two days
Description: A panel of chemically modified tetracycline compounds and doxycycline were tested for cytotoxicity against two carcinomas: COLO 205 (a human colon carcinoma-derived cell line) and the E-10 clone of MDA-MB-231 (a human breast carcinoma-derived cell line). Cytoxicity was measured using a conventional assay for viability with a tetrazolium salt (MTS). Cells were grown in media containing the CMTs at concentrations ranging from 5 μM to 100 μM for two days. The cells were then incubated with the MTS for several hours before removal of the supernatant medium for determination of formazan, which is generated only by the viable cells. Results are expressed as percent cytotoxicity, which is simply the percent decline in measured formazan concentration in the sampled medium.

C8161 cells = assay: C8161 cell proliferation (doubling time); type: cell-based, human; settings: 50 μg/mL
Description: Cell Culture and Maintenance: C8161 cells, a human melanoma cell line, were maintained in Dulbecco's modified Eagle's medium (DMEM; […] These cells were routinely screened for Mycoplasma contamination using the GenProbe Rapid Detection System (Fisher Scientific; Chicago, Ill.). Chemically Modified Tetracyclines: Fresh stock solutions of the chemically modified tetracycline compounds (2 mg/mL) were prepared for each experiment by hydrating in 2% dimethyl sulfoxide (DMSO)/water pH 10, then adjusting to pH 7.4 using 1.0 M HCl. […] Sigma Chem. Co.; control) or 50 μg/mL of doxycycline or the other CMTs (three wells on each plate per compound). […] The doubling time for C8161 cells in the presence of each compound was then determined and compared to the DMSO treated cells (control).

Structure (SMILES) | 50% inhibition dose (IC50), cell proliferation [1] | Gelatinase A, integrated density normalized to control 1.00 (Gelatinase A) | Gelatinase B, integrated density normalized to control 1.00 (Gelatinase B) | Type of Inhibition [4] | Percent Inhibition of invasive potential [4] | percent cytotoxicity (E-10 Cells; 5 μM) | percent cytotoxicity (E-10 Cells; 10 μM) | percent cytotoxicity (E-10 Cells; 20 μM) | percent cytotoxicity (E-10 Cells; 50 μM) | percent cytotoxicity (E-10 Cells; 100 μM) | percent cytotoxicity (COLO 205 Cells; 5 μM) | percent cytotoxicity (COLO 205 Cells; 10 μM) | percent cytotoxicity (COLO 205 Cells; 20 μM) | percent cytotoxicity (COLO 205 Cells; 50 μM) | percent cytotoxicity (COLO 205 Cells; 100 μM) | further results
CN(C)C1C(=O)C(C#N)=C(O)C2(O)C(=O)C3=C(O)c4c(O)cccc4C(C)(O)C3CC12 (stereo not shown) [CMT-2, tetracyclinonitrile] | 5.7 µg/mL | 0.89 | 1.51 | non-dose | ˜10% | 1.5% | 3.8% | 0.8% | 0% | 2.3% | 2.7% | 4.5% | 0% | 7% | 16.3% | inhibition of cell proliferation (rank among tested drugs) (Dunning MAT LyLu cells [2]): most effective inhibitors of cell proliferation; inhibition of invasive/metastatic potential (Matrigel invasion) (Dunning MAT LyLu cells [3]): equally inhibited; blood levels ([5]; rat, in vivo, po): no detectable blood levels; solubility in aqueous systems [6]: low solubility in aqueous systems
CC1(O)c2cccc(O)c2C(=O)C2=C(O)C3(O)C(=O)C(C(N)=O)=C(O)C(O)C3CC21 (stereo not shown) [CMT-6, 4-hydroxy-4-de(dimethylamino)tetracycline] | 120 µg/mL | 0.07 | 0.51 | dose dependent | 8-50% | 0% | 6% | 3% | 7.6% | 16.7% | 1.7% | 0% | 0% | 0% | 22.2% | Doubling Time (C8161 cells; on plastic, DMSO 22 hr): 24 h; increase of doubling time (C8161 cells; versus DMSO): approximately 9%; blood levels ([5]; adult rats, oral gavage): no detectable blood levels
